According to publication PMC13539321 (Journal of Advanced Research, 2025):

Experiments:
[1] = biological target: Mushroom TYR (EC 1.14.18.1) (Agaricus bisporus, UniProt C7FF04); test: biochemical; settings: IC50 value ± SD
B16F10 cells [2] = test: Cytotoxicity assay; format: cell-based; settings: 72 h
A375 cells [3] = test: Cytotoxicity assay; format: cell-based; settings: 72 h
B16F10 cells [4] = test: Intracellular melanogenesis inhibition assay, B16F10; format: cell-based; settings: melanotan II 100 nM, 72 h; for order of inhibitory effectiveness (macroscopic colour): 100 μM; for inhibitory effect on melanin synthesis: various concentrations
mushroom TYR = mushroom TYR (Agaricus bisporus, UniProt C7FF04); test: biochemical; format: binding
mushroom TYR, sequence (C7FF04 1-392 limits assumed): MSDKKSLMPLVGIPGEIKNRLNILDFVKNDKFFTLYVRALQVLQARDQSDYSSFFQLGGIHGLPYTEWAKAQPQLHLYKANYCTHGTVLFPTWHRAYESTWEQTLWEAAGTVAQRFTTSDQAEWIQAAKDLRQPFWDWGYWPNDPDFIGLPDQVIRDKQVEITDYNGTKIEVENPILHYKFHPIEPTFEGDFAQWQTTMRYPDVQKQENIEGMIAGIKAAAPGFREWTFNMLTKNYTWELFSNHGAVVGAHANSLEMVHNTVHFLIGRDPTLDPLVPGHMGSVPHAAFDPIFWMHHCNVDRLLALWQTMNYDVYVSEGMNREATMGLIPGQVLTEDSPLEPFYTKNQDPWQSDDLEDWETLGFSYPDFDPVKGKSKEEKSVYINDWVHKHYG

3D melanin skin model = test: 3D human skin model assay; format: cell-based; settings: 100 µM, six doses, UVB 50 mJ/cm^2 for seven days, n = 6
[5] = human, microsomes
Plasma stability study = format: in vitro ADME; settings: human
in vitro = settings: human, microsomes
A375 cells [6] = test: Intracellular melanogenesis inhibition assay, A375; format: cell-based; settings: melanotan II 100 nM, 72 h, all tested concentrations
[7] = L-dopa, substrate L-dopa (diphenolase), n = 3, screening of de novo generated compounds (Table 1)
[8] = L-tyrosine, substrate L-tyrosine (monophenolase), n = 3, screening of de novo generated compounds (Table 1)

Mushroom TYR (EC 1.14.18.1), sequence (C7FF04 1-392 limits assumed): as above

Compound | IC50 ([1]; L-dopa) | IC50 [1, 7] | IC50 ([1]; L-tyrosine) | IC50 [1, 8] | also measured
O=C(CCc1cccc(O)c1)N1CCN(Cc2ccc(F)cc2)CC1 [Compound V, 1-(4-(4-fluorobenzyl)piperazin-1-yl)-3-(3-hydroxyphenyl)propan-1-one] | 41.8 ± 3 µM | 18.5 ± 2.4 µM | 11.9 ± 0.5 µM | 9.6 ± 1.1 µM | cytotoxicity (B16F10 cells [2]; 200 μM): no cytotoxicity; cytotoxicity (A375 cells [3]; 100 μM): no cytotoxicity; cytotoxicity (A375 cells [3]; 200 μM): weak cytotoxicity; order of inhibitory effectiveness (macroscopic colour) (B16F10 cells [4]): compound V-24 > β-arbutin > kojic acid ≈ compound V; inhibitory effect on melanin synthesis (B16F10 cells [4]): comparable to that of kojic acid; Kd (mushroom TYR): 24.2 ± 20.3 µM
O=c1cc(CO)occ1O [kojic acid, reference compound] | – | – | – | – | L value (3D melanin skin model): 70.98 ± 0.68; cytotoxicity (B16F10 cells [2]; 200 μM): no cytotoxicity; cytotoxicity (A375 cells [3]; 200 μM): no cytotoxicity; order of inhibitory effectiveness (macroscopic colour) (B16F10 cells [4]): compound V-24 > β-arbutin > kojic acid ≈ compound V
O=C(CCc1cccc(O)c1)N1CCN(CCc2ccccc2)CC1 [Compound V-16, 3-(3-hydroxyphenyl)-1-(4-phenethylpiperazin-1-yl)propan-1-one] | > 800 µM | – | > 300 µM | – | –
O=C(CCc1ccc(O)cc1)N1CCN(Cc2ccc(F)cc2)CC1 [Compound V-4, 1-(4-(4-fluorobenzyl)piperazin-1-yl)-3-(4-hydroxyphenyl)propan-1-one] | 26.1 ± 4.6 µM | – | 2.9 ± 0.1 µM | – | –
COc1ccc(CN2CCN(C(=O)CCc3cccc(O)c3)CC2)cc1 [Compound V-13, 3-(3-hydroxyphenyl)-1-(4-(4-methoxybenzyl)piperazin-1-yl)propan-1-one] | 103 ± 5.6 µM | – | 132 ± 5.4 µM | – | –
NC(=O)[C@H](Cc1ccccc1)NC(=O)CCc1cccc(O)c1 [II, (S)-N-(1-amino-1-oxo-3-phenylpropan-2-yl)-3-(3-hydroxyphenyl)propanamide] | – | > 800 µM | – | 423 ± 38.3 µM | –
O=C(C=Cc1ccccc1)NCCc1cccc(O)c1 [XI, N-(3-hydroxyphenethyl)cinnamamide] | – | > 800 µM | – | 622 ± 82.8 µM | –
O=C(CCc1ccc(O)cc1O)N1CCN(Cc2cccc(Cl)c2)CC1 [Compound V-29, 1-(4-(3-chlorobenzyl)piperazin-1-yl)-3-(2,4-dihydroxyphenyl)propan-1-one] | 0.189 ± 0.005 µM | – | 0.216 ± 0.019 µM | – | –
N#Cc1ccc(CN2CCN(C(=O)CCc3cccc(O)c3)CC2)cc1 [Compound V-14, 4-((4-(3-(3-hydroxyphenyl)propanoyl)piperazin-1-yl)methyl)benzonitrile] | 72.6 ± 3.1 µM | – | 83.2 ± 3.2 µM | – | –
O=C(/C=C/c1ccc(O)cc1O)N1CCN(Cc2cccc(Cl)c2)CC1 [Compound V-30, (E)-1-(4-(3-chlorobenzyl)piperazin-1-yl)-3-(2,4-dihydroxyphenyl)prop-2-en-1-one] | 0.022 ± 0.001 µM | – | 0.021 ± 0.0003 µM | – | –
O=C(NCCc1cccc(O)c1)c1cccc2ncccc12 [VIII, N-(3-hydroxyphenethyl)quinoline-5-carboxamide] | – | > 800 µM | – | > 800 µM | –
Cc1nc2ccc(C(=O)NCc3ccc(O)cc3)cc2[nH]1 [XIII, N-(4-hydroxybenzyl)-2-methyl-1H-benzo[d]imidazole-6-carboxamide] | – | > 800 µM | – | 99.7 ± 15.3 µM | –
COc1cccc(/C=C/C(=O)Nc2n[nH]c3ccccc23)c1 [VII, (E)-N-(1H-indazol-3-yl)-3-(3-methoxyphenyl)acrylamide] | – | > 800 µM | – | > 800 µM | –
O=C(CCc1cccc(O)c1)NC1CCN(Cc2ccccc2)CC1 [IV, N-(1-benzylpiperidin-4-yl)-3-(3-hydroxyphenyl)propanamide] | – | > 800 µM | – | 198 ± 7.6 µM | –
O=C(CCc1cccc(O)c1)N1CCN(Cc2ccco2)CC1 [Compound V-17, 1-(4-(furan-2-ylmethyl)piperazin-1-yl)-3-(3-hydroxyphenyl)propan-1-one] | > 800 µM | – | > 600 µM | – | –
O=C(CCc1cccc(O)c1)N1CCCN(Cc2ccc(F)cc2)CC1 [Compound V-6, 1-(4-(4-fluorobenzyl)-1,4-diazepan-1-yl)-3-(3-hydroxyphenyl)propan-1-one] | 296 ± 7.9 µM | – | 88.9 ± 2.9 µM | – | –
CCOc1ccc(CN2CCN(C(=O)CCc3ccc(O)cc3O)CC2)cc1 [Compound V-27, 3-(2,4-dihydroxyphenyl)-1-(4-(4-ethoxybenzyl)piperazin-1-yl)propan-1-one] | 0.596 ± 0.026 µM | – | 0.497 ± 0.07 µM | – | –
O=C(CCc1cc(O)cc(O)c1)N1CCN(Cc2ccc(F)cc2)CC1 [Compound V-20, 3-(3,5-dihydroxyphenyl)-1-(4-(4-fluorobenzyl)piperazin-1-yl)propan-1-one] | 21.3 ± 0.8 µM | – | 9.1 ± 0.6 µM | – | –
Cc1ccc(CN2CCN(C(=O)/C=C/c3ccc(O)cc3O)CC2)cc1 [Compound V-24, (E)-3-(2,4-dihydroxyphenyl)-1-(4-(4-methylbenzyl)piperazin-1-yl)prop-2-en-1-one] | 0.018 ± 0.0007 µM | – | 0.02 ± 0.001 µM | – | Eh [5]: 69.00%; L value (3D melanin skin model): 83.38 ± 0.40; cytotoxicity (B16F10 cells [2]; 100 μM): no cytotoxicity; cytotoxicity (A375 cells [3]; 100 μM): no cytotoxicity; cytotoxicity (A375 cells [3]; 200 μM): weak cytotoxicity; half-life at 1 µM (Plasma stability study): 8.74 h; remaining at 2 h, 1 µM (Plasma stability study): 89.1%; half-life at 1 µM (in vitro): 0.58 h; remaining at 0.75 h, 1 µM (in vitro): 42%; inhibitory effect on melanin synthesis (A375 cells [6]): most pronounced inhibitory effect; order of inhibitory effectiveness (macroscopic colour) (B16F10 cells [4]): compound V-24 > β-arbutin > kojic acid ≈ compound V; inhibitory effect on melanin synthesis (B16F10 cells [4]): akin to that of β-arbutin; Kd (mushroom TYR): 13.8 ± 4.2 µM
CCOc1ccc(CN2CCN(C(=O)/C=C/c3ccc(O)cc3O)CC2)cc1 [Compound V-28, (E)-3-(2,4-dihydroxyphenyl)-1-(4-(4-ethoxybenzyl)piperazin-1-yl)prop-2-en-1-one] | 0.019 ± 0.0002 µM | – | 0.021 ± 0.001 µM | – | –
Cc1ccccc1CNC(=O)CCc1cccc(O)c1 [X, 3-(3-hydroxyphenyl)-N-(2-methylbenzyl)propanamide] | – | 462 ± 50.4 µM | – | 60.9 ± 1.9 µM | –
